ChEMBL document CHEMBL3785081 (J Med Chem, 2016)

How the values were obtained:
Liver microsome = experiment: Intrinsic clearance in human liver microsomes; type: ADME
[1] = Lipophilicity, log D of the compound at pH 7.4; type: physicochemical; details: buffer

**Q.** Which results are given for `C=CC(=O)N1C[C@H](COc2nc(Nc3cnn(C)c3)nc3[nH]ccc23)[C@@H](C(F)(F)F)C1`?
**A.** CLint (Liver microsome): 26 µL/min/g; logD [1]: 2.7

**Q.** For `C=CC(=O)N1C[C@H](COc2nc(Nc3cnn(C)c3)nc3[nH]cc(Cl)c23)[C@@H](O)C1`, which CLint (Liver microsome) is on record?
**A.** The CLint was 12 µL/min/g.

**Q.** What about the logD [1] of the same compound?
**A.** Its logD is 2.

**Q.** Which results are given for `C=CC(=O)Nc1cccc(Oc2nc(Nc3ccn(C)n3)nc3[nH]ccc23)c1`?
**A.** CLint (Liver microsome): 11 µL/min/g; logD [1]: 3

**Q.** For `C=CC(=O)N1C[C@H](COC)[C@@H](COc2nc(Nc3cnn(C)c3)nc3[nH]cc(Cl)c23)C1`, which CLint (Liver microsome) is on record?
**A.** Its CLint is 23 µL/min/g.

**Q.** What about the logD [1] of the same compound?
**A.** Its logD is 2.9.

**Q.** What does the source list for `C=CC(=O)N1C[C@H](CO)[C@@H](COc2nc(Nc3cnn(C)c3)nc3[nH]cc(Cl)c23)C1`?
**A.** CLint (Liver microsome): 13 µL/min/g; logD [1]: 2.3

**Q.** Which CLint (Liver microsome) does the source give for `C=CC(=O)N1C[C@H](COc2nc(Nc3cnn(C)c3)nc3[nH]cc(Cl)c23)[C@@H](C(F)(F)F)C1` here?
**A.** The CLint was 37 µL/min/g.

**Q.** What about the logD [1] of the same compound?
**A.** The logD was 3.

**Q.** Which logD [1] does the source give for `C#CCCn1cc(Nc2nc(OC[C@H]3CN(C(=O)C=C)C[C@@H]3OC)c3c(Cl)c[nH]c3n2)cn1` here?
**A.** The logD was 3.

**Q.** Which CLint (Liver microsome) does the source give for `C=CC(=O)N1CC[C@@H](COc2nc(Nc3cnn(C)c3)nc3[nH]cc(Cl)c23)C1` here?
**A.** Its CLint is 45 µL/min/g.

**Q.** And the logD [1]?
**A.** The logD was 2.91.

**Q.** With `C=CC(=O)Nc1cccc(Oc2nc(Nc3cnn(C)c3)nc3[nH]ccc23)c1` as the compound, how does the CLint (Liver microsome) read?
**A.** Its CLint is 66 µL/min/g.

**Q.** And the logD [1]?
**A.** The logD was 3.2.

**Q.** Which results are given for `C=CC(=O)N1C[C@@H](COc2nc(Nc3cnn(C)c3)nc3[nH]cc(Cl)c23)[C@H](OC)C1`?
**A.** CLint (Liver microsome): 24 µL/min/g; logD [1]: 2.4

**Q.** Which results are given for `C=CC(=O)N1C[C@H](COc2nc(Nc3cnn(C)c3)nc3[nH]cc(Cl)c23)[C@@H](F)C1`?
**A.** CLint (Liver microsome): 28 µL/min/g; logD [1]: 2.7

**Q.** With `C=CC(=O)N1CC[C@@H](COc2nc(Nc3cnn(C)c3)nc3[nH]ccc23)C1` as the compound, how does the CLint (Liver microsome) read?
**A.** Its CLint is 56 µL/min/g.

**Q.** And the logD [1]?
**A.** The logD was 2.1.

**Q.** For `C#CCOc1cc2ncnc(Nc3ccc(F)c(Cl)c3)c2cc1NC(=O)C=C`, which logD [1] is on record?
**A.** Its logD is 4.

**Q.** Which CLint (Liver microsome) does the source give for `C=CC(=O)Nc1cccc(Oc2nc(Nc3ccc(N4CCN(C)CC4)cc3)nc3[nH]ccc23)c1` here?
**A.** Its CLint is 20 µL/min/g.

**Q.** What about the logD [1] of the same compound?
**A.** Its logD is 2.7.

**Q.** For `C=CC(=O)N1C[C@H](COc2nc(Nc3cnn(C)c3)nc3[nH]cc(Cl)c23)[C@@H](OC)C1` [PF-06459988], which CLint (Liver microsome) is on record?
**A.** Its CLint is 18 µL/min/g.

**Q.** And the logD [1]?
**A.** The logD was 2.5.
